# Source: ChEMBL document CHEMBL1201862, “PubChem BioAssay data set” (2004)
#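 Where inhibition never reached the appropriate level, the endpoint shown equals the highest concentration tested. Otherwise, values were interpolated linearly from a five-concentration, 48-hour dose response in 96-well plates. GI50: concentration for 50% inhibition of growth.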 Activity calls are given as the source filed them. No stated cut-off is given here; in the data, active = GI50 up to about 1.1 µM and inactive = higher.
# Columns and labels:
# Experiment in all cases: NCI tumour cell line growth inhibition, 48 h
# 786-0 = system: 786-0
# A549 = system: A549
# ACHN = system: ACHN
# CAKI-1 = system: CAKI-1
# CCRF-CEM = system: CCRF-CEM
# COLO 205 = system: COLO 205
# DLD-1 = system: DLD-1
# DMS-114 = system: DMS-114
# DMS-273 = system: DMS-273
# EKVX = system: EKVX
# HCC 2998 = system: HCC 2998
# HCT-15 = system: HCT-15
# HL-60 = system: HL-60
# HOP-18 = system: HOP-18
# HOP-62 = system: HOP-62
# HOP-92 = system: HOP-92
# HT-29 = system: HT-29
# IGROV-1 = system: IGROV-1
# K562 = system: K562
# KM-20L2 = system: KM-20L2
# KM12 = system: KM12
# LOX IMVI = system: LOX IMVI
# LXFL 529 = system: LXFL 529
# M14 = system: M14
# M19-MEL = system: M19-MEL
# MOLT-4 = system: MOLT-4
# Malme-3M = system: Malme-3M
# NCI-H23 = system: NCI-H23
# NCI-H460 = system: NCI-H460
# NCI-H522 = system: NCI-H522
# OVCAR-3 = system: OVCAR-3
# OVCAR-4 = system: OVCAR-4
# OVCAR-5 = system: OVCAR-5
# OVCAR-8 = system: OVCAR-8
# RPMI-8226 = system: RPMI-8226
# RXF 393 = system: RXF 393
# RXF 631 = system: RXF 631
# SF-268 = system: SF-268
# SF-295 = system: SF-295
# SF-539 = system: SF-539
# SK-MEL-28 = system: SK-MEL-28
# SK-MEL-2 = system: SK-MEL-2
# SK-MEL-5 = system: SK-MEL-5
# SK-OV-3 = system: SK-OV-3
# SN12C = system: SN12C
# SNB-75 = system: SNB-75
# SW-620 = system: SW-620
# TK-10 = system: TK-10
# U-251 = system: U-251
# UACC-257 = system: UACC-257
# UACC-62 = system: UACC-62
# UO-31 = system: UO-31
# A498 = system: A498
# HCT-116 = system: HCT-116
# NCI-H226 = system: NCI-H226
# SNB-19 = system: SNB-19
# SNB-78 = system: SNB-78
# SR = system: SR
smiles,measurement,setting,value
N#CC(C#N)=C1NN=C(Cl)c2ccccc21,GI50,786-0,> 100 µM (inactive)
same,GI50,A549,> 100 µM (inactive)
same,GI50,ACHN,> 100 µM (inactive)
same,GI50,CAKI-1,> 100 µM (inactive)
same,GI50,CCRF-CEM,88.1 µM (inactive)
same,GI50,COLO 205,> 100 µM (inactive)
same,GI50,DLD-1,> 100 µM (inactive)
same,GI50,DMS-114,> 100 µM (inactive)
same,GI50,DMS-273,> 100 µM (inactive)
same,GI50,EKVX,> 100 µM (inactive)
same,GI50,HCC 2998,> 100 µM (inactive)
same,GI50,HCT-15,> 100 µM
same,GI50,HL-60,43.2 µM (inactive)
same,GI50,HOP-18,37.3 µM (inactive)
same,GI50,HOP-62,67.8 µM (inactive)
same,GI50,HOP-92,47.2 µM (inactive)
same,GI50,HT-29,> 100 µM (inactive)
same,GI50,IGROV-1,> 100 µM (inactive)
same,GI50,K562,> 100 µM (inactive)
same,GI50,KM-20L2,> 100 µM (inactive)
same,GI50,KM12,> 100 µM (inactive)
same,GI50,LOX IMVI,> 100 µM (inactive)
same,GI50,LXFL 529,65 µM (inactive)
same,GI50,M14,> 100 µM (inactive)
same,GI50,M19-MEL,> 100 µM (inactive)
same,GI50,MOLT-4,> 100 µM (inactive)
same,GI50,Malme-3M,30.3 µM (inactive)
same,GI50,NCI-H23,59.4 µM (inactive)
same,GI50,NCI-H460,> 100 µM (inactive)
same,GI50,NCI-H522,72.1 µM (inactive)
same,GI50,OVCAR-3,> 100 µM (inactive)
same,GI50,OVCAR-4,> 100 µM (inactive)
same,GI50,OVCAR-5,> 100 µM (inactive)
same,GI50,OVCAR-8,> 100 µM (inactive)
same,GI50,RPMI-8226,57.3 µM (inactive)
same,GI50,RXF 393,> 100 µM (inactive)
same,GI50,RXF 631,80.5 µM (inactive)
same,GI50,SF-268,72.9 µM (inactive)
same,GI50,SF-295,> 100 µM (inactive)
same,GI50,SF-539,85.5 µM (inactive)
same,GI50,SK-MEL-28,61.8 µM (inactive)
same,GI50,SK-MEL-2,> 100 µM (inactive)
same,GI50,SK-MEL-5,> 100 µM (inactive)
same,GI50,SK-OV-3,> 100 µM (inactive)
same,GI50,SN12C,96.4 µM (inactive)
same,GI50,SNB-75,33.9 µM (inactive)
same,GI50,SW-620,> 100 µM (inactive)
same,GI50,TK-10,> 100 µM (inactive)
same,GI50,U-251,96.4 µM (inactive)
same,GI50,UACC-257,98.6 µM (inactive)
same,GI50,UACC-62,70.5 µM (inactive)
same,GI50,UO-31,50.7 µM (inactive)
CC(=O)OC(=O)O/C=C\CCl,GI50,786-0,> 100 µM (inactive)
same,GI50,A498,> 100 µM (inactive)
same,GI50,A549,> 100 µM (inactive)
same,GI50,ACHN,> 100 µM (inactive)
same,GI50,CAKI-1,> 100 µM (inactive)
same,GI50,CCRF-CEM,93.8 µM (inactive)
same,GI50,COLO 205,> 100 µM (inactive)
same,GI50,DLD-1,> 100 µM (inactive)
same,GI50,DMS-114,> 100 µM (inactive)
same,GI50,DMS-273,62.8 µM (inactive)
same,GI50,HCC 2998,> 100 µM (inactive)
same,GI50,HCT-116,> 100 µM (inactive)
same,GI50,HCT-15,> 100 µM
same,GI50,HL-60,29.4 µM (inactive)
same,GI50,HOP-18,> 100 µM (inactive)
same,GI50,HOP-62,> 100 µM (inactive)
same,GI50,IGROV-1,> 100 µM (inactive)
same,GI50,K562,> 100 µM (inactive)
same,GI50,KM-20L2,> 100 µM (inactive)
same,GI50,KM12,> 100 µM (inactive)
same,GI50,LXFL 529,> 100 µM (inactive)
same,GI50,M14,> 100 µM (inactive)
same,GI50,M19-MEL,> 100 µM (inactive)
same,GI50,MOLT-4,38 µM (inactive)
same,GI50,Malme-3M,> 100 µM (inactive)
same,GI50,NCI-H226,> 100 µM (inactive)
same,GI50,NCI-H460,> 100 µM (inactive)
same,GI50,NCI-H522,13.7 µM (inactive)
same,GI50,OVCAR-3,> 100 µM (inactive)
same,GI50,OVCAR-4,> 100 µM (inactive)
same,GI50,OVCAR-8,> 100 µM (inactive)
same,GI50,RPMI-8226,> 100 µM (inactive)
same,GI50,RXF 393,> 100 µM (inactive)
same,GI50,RXF 631,> 100 µM (inactive)
same,GI50,SF-268,> 100 µM (inactive)
same,GI50,SF-539,> 100 µM (inactive)
same,GI50,SK-MEL-28,> 100 µM (inactive)
same,GI50,SK-MEL-2,> 100 µM (inactive)
same,GI50,SK-MEL-5,> 100 µM (inactive)
same,GI50,SK-OV-3,> 100 µM (inactive)
same,GI50,SN12C,> 100 µM (inactive)
same,GI50,SNB-19,> 100 µM (inactive)
same,GI50,SNB-75,> 100 µM (inactive)
same,GI50,SNB-78,> 100 µM (inactive)
same,GI50,SR,42 µM (inactive)
same,GI50,SW-620,> 100 µM (inactive)
same,GI50,TK-10,> 100 µM (inactive)
same,GI50,U-251,> 100 µM (inactive)
same,GI50,UACC-257,> 100 µM (inactive)
same,GI50,UACC-62,> 100 µM (inactive)
same,GI50,UO-31,> 100 µM (inactive)
